Entries after “also recorded” stand apart in the source; their conditions may differ. Read-outs that look alike come from different tables or passages of the source.
How the values were obtained:
C. albicans = test: Kirby-Bauer disc diffusion antimicrobial susceptibility; assay type: cell-based, Candida albicans; settings: 100 mM, carrier water
[1] = system: Staphylococcus aureus ATCC 33591 (MRSA) biofilm; test: Drip flow biofilm reactor, PCA coated cloth and sintered mesh, Example 7; settings: 30% concentration of PCA (FIG. 36)
[2] = system: Staphylococcus epidermidis ATCC 51625 (MRSE); test: In vitro antimicrobial test (FIG. 32); assay type: cell-based
K. pneumoniae = test: Kirby-Bauer disc diffusion antimicrobial susceptibility; assay type: cell-based; settings: 100 mM, carrier water; 18-24 hours for aerobes
all bacteria tested = test: In vitro antimicrobial susceptibility, whole panel; assay type: cell-based
Propionibacterium acnes = test: Human skin disinfection study, species analysis of cultures; assay type: in vivo; settings: Phase IV
Method: Phase 1: The active test reagent was topically applied 1.54% PCA in sterile water to the anterior shoulder region. This 1.54% solution of PCA in water was used effectively in our prior animal wound studies. The controls were Chloroprep (2% Chlorhexidine in 70% isopropyl alcohol) and Betadine (9.0% to 12.0% available iodine in water). Cultures were taken before application and 20 minutes after application. The initial harvest was by a surface swab. Application was by soaked sponge, without force or scrubbing. The second harvest was performed with the back edge of a sterile knife blade scraping with pressure in attempt to maximize the harvest from the deeper sebaceous glands and hair follicles. The specimens were placed in culture media. Bacteriology was performed at WuXiAppTec in Marrietta, Ga.
Phase 2 included eleven medical students and was same method as Phase 1. However the PCA vehicle was changed to 70% isopropyl alcohol. This allowed a higher concentration of PCA than possible in sterile water, 10%. Phase 2a: The 70% isopropyl alcohol vehicle was tested for its bactericidal properties. […] In this way it was learned what specific bacterial strains PCA could eliminate or reduce.
Cultures were stored in ice and shipped in FedEx ice box to WuXiapptec in Marietta, Ga. for aerobic and anaerobic cultures and held for 21 days. […]

[3] = system: Klebssilla pneumonia ATCC4352; test: Paper disc test with water or propylene glycol, Example 10; assay type: cell-based
P. acnes 6919 = test: Kirby-Bauer disc diffusion antimicrobial susceptibility; assay type: cell-based; settings: 100 mM, carrier water
S. aureus 33591 (MRSA) = test: as above; assay type: cell-based, Staphylococcus aureus; settings: 100 mM, carrier water; 18-24 hours for aerobes
[4] = system: P. aeruginosa (ACTA 9027); assay type: in vivo
[5] = system: Pseudomonas Aeruginosa ATCC 700888 biofilm; test: Single spray on biofilm on glass slides, time study, Example 8; settings: for log reduction: 30% PCA spray in isopropyl alcohol, vs positive control slides
[6] = system: P. aeruginosa (ACTA 27853); assay type: in vivo; settings: for bacterial burden of P. aeruginosa in skin tissue: 25 mM topical in water
TGF-β = test: Local growth hormones in tape stripped mouse skin wound by ELISA (FIG. 11, FIG. 13, Example 5); assay type: in vivo, mice
Method: (§1) Four different conditions were used: mice had back skin tape stripped and the stripped site (wound) was infected with P. aeruginosa; mice had back skin stripped and were not infected, mice had taped stripped, infected and treated with PCA, mice were tape stripped, uninfected, and treated with PCA. When used, the PCA test reagent was applied topically in an aqueous solution on the stripped site at two hours and 24 hours.
(§2) The testing reagents consisted of and PCA formulated at one dose, 25 mM, in an aqueous solution. Levels of IGF-1, TGF-β, and EGF levels in the skin tissue at 48 hours were measured by ELISA. There were two control groups; the stripped skin and the stripped skin and infected.

EGF = test: as above; assay type: in vivo, mice
Method: as §1, §2

IGF-1 = test: as above; assay type: in vivo, mice
Method: as §1, §2

C difficile = test: Kirby-Bauer disc diffusion antimicrobial susceptibility; assay type: cell-based; settings: 100 mM, carrier water; 48 hours for anaerobes
[7] = system: normal human skin bacterial resident flora; test: Summary of the 4 Phase Testing at Loma Linda; assay type: in vivo
Method: A randomized double blinded study was performed at Loma Linda Medical School. It involved 4 phases over two years' time.

Legionella 43662 = assay type: cell-based
[8] = 25 mM at 2 and 24 hours, tape stripped and infected with P. aeruginosa, 48 hours (FIG. 13)

O=C(O)c1ccc(O)c(O)c1 [PCA, Protocatechuic acid] was tested, and the “effectiveness against C. albicans” value (C. albicans) was “effective; also recorded: susceptible”, the “effectiveness against MRSA biofilm” value [1] was “effective; also recorded: very effective” and the “effectiveness against MRSE ATCC 51625” value [2] was “effective”. For the same compound, the “effectiveness against K. pneumoniae” value (K. pneumoniae) was “effective”, the “antibiotic properties (summary)” value (all bacteria tested) was “broad spectrum antibiotic” and the “overall effectiveness in the in vitro panel” value (all bacteria tested; 100 mM, carrier water, 18-24 hours for aerobes, 48 hours for anaerobes) was “effective against all bacteria tested”. For the same compound, the “P. acnes growth after treatment” value (Propionibacterium acnes; culture #14, 20 minutes) was “no growth”, the “P. acnes growth after treatment” value (Propionibacterium acnes; culture #19, 60 minutes) was “no growth” and the “inhibition of growth under the sample” value ([3]; PPG) was “I”. For the same compound, the zone of inhibition ([3]; PPG) was 3 mm, the “inhibition of growth under the sample” value ([3]; Water) was “I” and the zone of inhibition ([3]; Water) was 2 mm. The “effectiveness against P. acnes (growth inhibition)” value (P. acnes 6919) was “effective; also recorded: able to kill; also recorded: bactericidal”, the “effectiveness against S. aureus 33591 (MRSA)” value (S. aureus 33591 (MRSA)) was “effective” and the “most effective concentration for decreasing bacterial burden” value ([4]; of 50, 100 and 200 mM tested, 96 hours) was 50 mM. The “bacterial burden in the skin” value ([4]; topical in water, 50, 100 and 200 mM, at two hours and daily for four days, day five, none statistically significant) was “decreased the bacterial burden”, the log reduction ([5]; after 30 minutes) was 3.3 log and the log reduction ([5]; after 60 minutes) was 2.2 log. For the same compound, the “reduction in the number colony forming units” value ([5]; 30% PCA spray, after 60 minutes) was 99.9%, the “bacterial burden of P. aeruginosa in skin tissue” value ([6]; 48 and 96 hours) was “reduced the bacterial burden” and the “bacterial burden of P. aeruginosa in skin tissue” value ([6]; 48 hours) was “significantly decreased; also recorded: effective”. For the same compound, the “dose that was bactericidal on Pseudomonas aeruginosa on taped stripped rodent skin” value ([6]; calculated from 25 mM and applied volume) was 0.00038 grams, the “kill of Pseudomonas aeruginosa” value ([6]; in 48 hours, both reagents and dose (PCA 25, 50 mM; C3G 100, 200 mM)) was 10,000 fold and the “action on stripped skin wound of a rodent” value ([6]; topical, various calculated doses, in 48 to 96 hours) was “bactericidal”. For the same compound, the “TGF-β level in skin tissue” value (TGF-β; [8]) was “decreased”, the “local growth hormone level of TGF-Beta” value (TGF-β; 25 mM, site of the untreated skin wound (FIG. 11B)) was “increased” and the “EGF level in skin tissue” value (EGF; [8]) was “decreased; also recorded: lowest”. For the same compound, the “local growth hormone level of EGF” value (EGF; 25 mM, site of the untreated skin wound (FIG. 11C)) was “increased”, the “IGF-1 level in skin tissue” value (IGF-1; [8]) was “moderately elevated; also recorded: optimizes the IGF-1 production” and the “local growth hormone level of IGF-1” value (IGF-1; 25 mM, site of the untreated skin wound (FIG. 11A)) was “increased”. The “optimal dose to optimize local growth hormones” value (IGF-1; IGF-1, TGF-β and EGF together, rodent skin wound) was “Approximately 25 mM”, the “effectiveness against C. difficile (growth inhibition)” value (C difficile) was “effective” and the “optimal dose to act as a human skin disinfectant” value ([7]; in vivo) was “greater than 10%”. For the same compound, the “removal of pathogens from human skin” value ([7]; solutions at 10% or higher) was “removed all pathogens” and the “effectiveness against Legionella 43662” value (Legionella 43662) was “effective”.

Source: patent US20200222347A1, “ANTIMICROBIALS AND METHODS OF USE THEREOF” (priority 2013, published 2020)
